Tested on: yeast genes (level of expressed mRNA)
Experiment: DNA chip analysis of expressed mRNA of yeast genes after 2 h culture with a toxic chemical substance
Format: cell-based, Saccharomyces cerevisiae S288C
Conditions: for The level of expressed mRNA in the presence of chemical substance/ (ratio to absence of chemical substance): stress protein genes, DNA chip; for The level of expressed mRNA in the presence of chemical substance/ in its absence, gene YPR184W: yeast gene YPR184W
How it was run: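 S. cerevisiae S288C grown at 25° C in YPD; toxicant added at log phase at growth-inhibitory, non-lethal levels for 2 h, untreated cells as control. Poly(A) mRNA reverse-transcribed with Cy3/Cy5-dUTP, hybridized to whole-genome chip at 65° C >12 h; value is fluorescence ratio versus untreated.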

Question: How did the “The level of expressed mRNA in the presence of chemical substance/The level of expressed mRNA in the absence of chemical substance” value (yeast gene YNL006W) turn out when CCCCCCCCCCCCOS(=O)(=O)[O-].[Na+] [(18), sodium lauryl sulfate] was run?
Answer: Its value is 1.3.

Question: And the “The level of expressed mRNA in the presence of chemical substance/The level of expressed mRNA in the absence of chemical substance” value (yeast gene YNL007C)?
Answer: The value was 1.0.

Question: What about the “The level of expressed mRNA in the presence of chemical substance/ (in its absence), gene YNL025C” value (yeast gene YNL025C, ratio of DNA chip fluorescence intensity to that without chemical substance) of the same compound?
Answer: The value was 1.3.

Question: What about the “The level of expressed mRNA in the presence of chemical substance/ (ratio to absence of chemical substance)” value (yeast gene YNL064C) of the same compound?
Answer: Its value is 0.7.

Question: And the “The level of expressed mRNA in the presence of chemical substance/ (ratio to absence), gene YNL073W” value (yeast gene YNL073W, mitochondria-located protein genes, 2 h culture with chemical)?
Answer: The value was 1.0.

Question: And the “The level of expressed mRNA in the presence of chemical substance/The level of expressed mRNA in the absence of chemical substance” value (yeast gene YNL093W)?
Answer: The value was 3.1.

Question: What about the “The level of expressed mRNA in the presence of chemical substance/ (in its absence), gene YNL192W” value (yeast gene YNL192W, ratio of DNA chip fluorescence intensity to that without chemical substance) of the same compound?
Answer: The value was 2.8.

Question: And the “The level of expressed mRNA in the presence of chemical substance/The level of expressed mRNA in the absence of chemical substance” value (yeast gene YNL333W)?
Answer: Its value is 1.1.

Question: And the “The level of expressed mRNA in the presence of chemical substance/The level of expressed mRNA in the absence of chemical substance” value (yeast gene YNR010W)?
Answer: Its value is 2.3.

Question: And the “The level of expressed mRNA in the presence of chemical substance/The level of expressed mRNA in the absence of chemical substance” value (yeast gene YNR069C)?
Answer: The value was 0.9.

Question: What about the “The level of expressed mRNA in the presence of chemical substance/ (in its absence), gene YNR072W” value (yeast gene YNR072W, ratio of DNA chip fluorescence intensity to that without chemical substance) of the same compound?
Answer: The value was 1.0.

Question: What about the “The level of expressed mRNA in the presence of chemical substance/ (ratio to absence of chemical substance)” value (yeast gene YNR076W) of the same compound?
Answer: Its value is 0.8.

Question: What about the “The level of expressed mRNA in the presence of chemical substance/The level of expressed mRNA in the absence of chemical substance” value (yeast gene YOL013C) of the same compound?
Answer: The value was 1.4.

Question: And the “The level of expressed mRNA in the presence of chemical substance/ (ratio to absence), gene YOL096C” value (yeast gene YOL096C, mitochondria-located protein genes, 2 h culture with chemical)?
Answer: The value was 1.2.

Question: And the “The level of expressed mRNA in the presence of chemical substance/ (in its absence), gene YOL096C” value (yeast gene YOL096C, ratio of DNA chip fluorescence intensity to that without chemical substance)?
Answer: The value was 1.2.

Question: And the “The level of expressed mRNA in the presence of chemical substance/ (in its absence), gene YOL108C” value (yeast gene YOL108C, ratio of DNA chip fluorescence intensity to that without chemical substance)?
Answer: The value was 2.7.

Question: And the “The level of expressed mRNA in the presence of chemical substance/ (in its absence), gene YOL116W” value (yeast gene YOL116W, ratio of DNA chip fluorescence intensity to that without chemical substance)?
Answer: The value was 1.4.

Question: What about the “The level of expressed mRNA in the presence of chemical substance/ (ratio to absence of chemical substance)” value (yeast gene YOL161C) of the same compound?
Answer: The value was 1.0.

Question: And the “The level of expressed mRNA in the presence of chemical substance/The level of expressed mRNA in the absence of chemical substance” value (yeast gene YOL164W)?
Answer: Its value is 1.3.

Question: And the “The level of expressed mRNA in the presence of chemical substance/ (ratio to absence of chemical substance)” value (yeast gene YOR008C)?
Answer: Its value is 1.3.

Question: And the “The level of expressed mRNA in the presence of chemical substance/ (ratio to absence of chemical substance)” value (yeast gene YOR009W)?
Answer: The value was 0.8.

Question: What about the “The level of expressed mRNA in the presence of chemical substance/ (ratio to absence of chemical substance)” value (yeast gene YOR010C) of the same compound?
Answer: The value was 0.6.

Question: What about the “The level of expressed mRNA in the presence of chemical substance/The level of expressed mRNA in the absence of chemical substance” value (yeast gene YOR036W) of the same compound?
Answer: Its value is 1.7.

Question: What about the “The level of expressed mRNA in the presence of chemical substance/ (in its absence), gene YOR103C” value (yeast gene YOR103C, ratio of DNA chip fluorescence intensity to that without chemical substance) of the same compound?
Answer: The value was 1.5.

Question: What about the “The level of expressed mRNA in the presence of chemical substance/The level of expressed mRNA in the absence of chemical substance” value (yeast gene YOR117W) of the same compound?
Answer: Its value is 0.9.

Question: What about the “The level of expressed mRNA in the presence of chemical substance/The level of expressed mRNA in the absence of chemical substance” value (yeast gene YOR124C) of the same compound?
Answer: Its value is 1.0.

Question: What about the “The level of expressed mRNA in the presence of chemical substance/The level of expressed mRNA in the absence of chemical substance” value (yeast gene YOR132W) of the same compound?
Answer: Its value is 1.6.

Question: And the “The level of expressed mRNA in the presence of chemical substance/The level of expressed mRNA in the absence of chemical substance” value (yeast gene YOR157C)?
Answer: Its value is 1.2.

Question: What about the “The level of expressed mRNA in the presence of chemical substance/ (in its absence), gene YOR180C” value (yeast gene YOR180C, ratio of DNA chip fluorescence intensity to that without chemical substance) of the same compound?
Answer: The value was 2.3.

Question: And the “The level of expressed mRNA in the presence of chemical substance/The level of expressed mRNA in the absence of chemical substance” value (yeast gene YOR181W)?
Answer: Its value is 0.6.

Question: And the “The level of expressed mRNA in the presence of chemical substance/The level of expressed mRNA in the absence of chemical substance” value (yeast gene YOR185C)?
Answer: Its value is 1.1.

Question: What about the “The level of expressed mRNA in the presence of chemical substance/The level of expressed mRNA in the absence of chemical substance” value (yeast gene YOR198C) of the same compound?
Answer: The value was 1.5.

Question: What about the “The level of expressed mRNA in the presence of chemical substance/ (in its absence), gene YOR251C” value (yeast gene YOR251C, ratio of DNA chip fluorescence intensity to that without chemical substance) of the same compound?
Answer: The value was 1.3.

Question: And the “The level of expressed mRNA in the presence of chemical substance/The level of expressed mRNA in the absence of chemical substance” value (yeast gene YOR259C)?
Answer: Its value is 1.5.

Question: And the “The level of expressed mRNA in the presence of chemical substance/The level of expressed mRNA in the absence of chemical substance” value (yeast gene YOR261C)?
Answer: Its value is 1.9.

Question: What about the “The level of expressed mRNA in the presence of chemical substance/The level of expressed mRNA in the absence of chemical substance” value (yeast gene YOR288C) of the same compound?
Answer: Its value is 1.6.

Question: What about the “The level of expressed mRNA in the presence of chemical substance/ (ratio to absence), gene YOR316C” value (yeast gene YOR316C, mitochondria-located protein genes, 2 h culture with chemical) of the same compound?
Answer: The value was 1.0.

Question: What about the “The level of expressed mRNA in the presence of chemical substance/ (in its absence), gene YOR348C” value (yeast gene YOR348C, ratio of DNA chip fluorescence intensity to that without chemical substance) of the same compound?
Answer: The value was 0.9.

Question: What about the “The level of expressed mRNA in the presence of chemical substance/The level of expressed mRNA in the absence of chemical substance” value (yeast gene YOR355W) of the same compound?
Answer: Its value is 0.9.

Question: What about the “The level of expressed mRNA in the presence of chemical substance/ (in its absence), gene YOR363C” value (yeast gene YOR363C, ratio of DNA chip fluorescence intensity to that without chemical substance) of the same compound?
Answer: The value was 1.8.

Question: What about the “The level of expressed mRNA in the presence of chemical substance/The level of expressed mRNA in the absence of chemical substance” value (yeast gene YOR383C) of the same compound?
Answer: Its value is 1.1.

Question: What about the “The level of expressed mRNA in the presence of chemical substance/ (ratio to absence), gene YPL040C” value (yeast gene YPL040C, mitochondria-located protein genes, 2 h culture with chemical) of the same compound?
Answer: The value was 1.1.

Question: What about the “The level of expressed mRNA in the presence of chemical substance/ (ratio to absence of chemical substance)” value (yeast gene YPL059W) of the same compound?
Answer: The value was 1.3.

Question: And the “The level of expressed mRNA in the presence of chemical substance/The level of expressed mRNA in the absence of chemical substance” value (yeast gene YPL089C)?
Answer: The value was 1.1.

Question: And the “The level of expressed mRNA in the presence of chemical substance/The level of expressed mRNA in the absence of chemical substance” value (yeast gene YPL109C)?
Answer: The value was 1.2.

Question: And the “The level of expressed mRNA in the presence of chemical substance/ (ratio to absence), gene YPL134C” value (yeast gene YPL134C, mitochondria-located protein genes, 2 h culture with chemical)?
Answer: The value was 1.3.

Question: What about the “The level of expressed mRNA in the presence of chemical substance/ (ratio to absence of chemical substance)” value (yeast gene YPL140C) of the same compound?
Answer: The value was 1.4.

Question: And the “The level of expressed mRNA in the presence of chemical substance/ (in its absence), gene YPL148C” value (yeast gene YPL148C, ratio of DNA chip fluorescence intensity to that without chemical substance)?
Answer: The value was 1.1.

Question: What about the “The level of expressed mRNA in the presence of chemical substance/The level of expressed mRNA in the absence of chemical substance” value (yeast gene YPL149W) of the same compound?
Answer: The value was 2.9.

Question: And the “The level of expressed mRNA in the presence of chemical substance/The level of expressed mRNA in the absence of chemical substance” value (yeast gene YPL154C)?
Answer: The value was 2.0.

Question: And the “The level of expressed mRNA in the presence of chemical substance/ (ratio to absence of chemical substance)” value (yeast gene YPL194W)?
Answer: Its value is 0.8.

Question: And the “The level of expressed mRNA in the presence of chemical substance/ (ratio to absence of chemical substance)” value (yeast gene YPR005C)?
Answer: Its value is 1.1.

Question: What about the “The level of expressed mRNA in the presence of chemical substance/The level of expressed mRNA in the absence of chemical substance” value (yeast gene YPR103W) of the same compound?
Answer: The value was 1.5.

Question: And the “The level of expressed mRNA in the presence of chemical substance/The level of expressed mRNA in the absence of chemical substance” value (yeast gene YPR108W)?
Answer: The value was 1.3.

Question: What about the “The level of expressed mRNA in the presence of chemical substance/ (in its absence), gene YPR165W” value (yeast gene YPR165W, ratio of DNA chip fluorescence intensity to that without chemical substance) of the same compound?
Answer: Its value is 2.7.

Question: And the “The level of expressed mRNA in the presence of chemical substance/ in its absence, gene YPR184W” value (energy system protein genes, 2 h culture with the chemical, ratio to control without chemical)?
Answer: The value was 1.7.

Question: And the “The level of expressed mRNA in the presence of chemical substance/ in its absence, gene YPR184W” value (ratio of DNA chip fluorescence intensity to that without chemical substance)?
Answer: Its value is 1.7.
